Test results published in patent publication US20250057845A1, “COMBINATION OF A TASK1/3 CHANNEL BLOCKER WITH A P2X3 RECEPTOR ANTAGONIST FOR THE TREATMENT OF SLEEP APNEA” (BAYER AKTIENGESELLSCHAFT, priority 2020, published 2025).

Key:
[1] = test system: upper airway collapsibility in anaesthetized, spontaneously breathing pigs; assay: pig model of obstructive sleep apnea (OSA): upper airway collapsibility under negative pressure; type: in vivo, German Landrace pigs
Text: The therapeutic potential of the combination of a TASK1/3 channel blocker with a P2X3 receptor antagonist according to the present invention in sleep apnea can be assessed preclinically in a pig model of obstructive sleep apnea (OSA).
Using negative pressure, it is possible to induce collapse and thus obstruction of the upper respiratory tract in anaesthetized, spontaneously breathing pigs (Wirth K. J. et al., Sleep 36(5) (2013) pp. 699-708).
German Landrace pigs are used for the model. The pigs are anaesthetized and tracheotomized. Two tracheal cannulas are inserted into the trachea, one into the rostral part and the other into the caudal part of the trachea. Using a connection piece, the rostral cannula is connected to a tube to the negative pressure device and to the distal tracheal cannula. The distal tracheal cannula is additionally connected to a tube with an open end to atmosphere via a connection piece that served for free tracheal breathing, circumventing the upper airway. By appropriate opening and clamping of those tubes breathing can be switched from nasal breathing to breathing through the caudal tracheal cannula, circumventing the upper airway, and the (isolated) upper airway can be connected to the negative pressure device, causing airflow in the inspiratory direction.
At certain points in time, the collapsibility of the upper respiratory tract is tested by having the pig breathe via the caudal cannula and applying negative pressures of −50, −100 and −150 cm water head (cm H2O) to the upper respiratory tract. This causes the upper respiratory tract to collapse, which manifests itself in an interruption of the airflow and a pressure drop in the tube system. This test is conducted prior to the administration of the test substance and at certain intervals after the administration of the test substance. An appropriately effective test substance can prevent this collapse of the respiratory tract in the inspiratory phase.

[2] = free plasma concentrations of Gefapixant in the OSA pig model (FIG. 4); type: in vivo, German Landrace pigs; settings: pigs, minimal effective dose of Gefapixant (iv bolus 0.3 mg/kg then infusion 0.1 mg/kg/h)
[3] = 0.3 μg intranasal given at 0 min, time 0 min
[4] = 0.3 μg intranasal given at 0 min, time 10 min
[5] = 0.3 μg intranasal given at 0 min, time 30 min
[6] = 0.3 μg intranasal given at 0 min, time 60 min
[7] = 0.3 μg intranasal given at 0 min, time 90 min
[8] = Gefapixant iv bolus 0.3 mg/kg then iv infusion 0.1 mg/kg/h for four hours, given at 0 min, time 0 min
[9] = Gefapixant iv bolus 0.3 mg/kg then iv infusion 0.1 mg/kg/h for four hours, given at 0 min, time 10 min
[10] = Gefapixant iv bolus 0.3 mg/kg then iv infusion 0.1 mg/kg/h for four hours, given at 0 min, time 30 min
[11] = Gefapixant iv bolus 0.3 mg/kg then iv infusion 0.1 mg/kg/h for four hours, given at 0 min, time 60 min
[12] = Gefapixant iv bolus 0.3 mg/kg then iv infusion 0.1 mg/kg/h for four hours, given at 0 min, time 120 min
[13] = Gefapixant iv bolus 0.3 mg/kg then iv infusion 0.1 mg/kg/h for four hours, given at 0 min, time 180 min
[14] = Gefapixant iv bolus 0.3 mg/kg then iv infusion 0.1 mg/kg/h for four hours, given at 0 min, time 240 min
[15] = Gefapixant iv bolus 0.3 mg/kg then iv infusion 0.1 mg/kg/h for four hours, given at 0 min, time 300 min

COc1ccc(Cl)c(C(=O)N2C3CCC2CN(Cc2c(-c4ccc(C(C)C)cc4)nc4ncccn24)C3)n1 [(3-chloro-6-methoxypyridin-2-yl)(3-{[2-(4-isopropylphenyl)imidazo[1,2-a]pyrimidin-3-yl]methyl}-3,8-diazabicyclo[3.2.1]oct-8-yl)methanone]
effectiveness of the dose on upper airway collapsibility ([1]; 0.3 μg intranasal): non effective dose
Percent pigs without collaps −50 cm H2O, % [1, 3]: 0%
Percent pigs without collaps −50 cm H2O, % [1, 4]: 33%
Percent pigs without collaps −50 cm H2O, % [1, 5]: 0%
Percent pigs without collaps −50 cm H2O, % [1, 6]: 0%
Percent pigs without collaps −50 cm H2O, % [1, 7]: 0%
Percent pigs without collaps −100 cm H2O, % [1, 3]: 0%
Percent pigs without collaps −100 cm H2O, % [1, 4]: 33%
Percent pigs without collaps −100 cm H2O, % [1, 5]: 0%
Percent pigs without collaps −100 cm H2O, % [1, 6]: 0%
Percent pigs without collaps −100 cm H2O, % [1, 7]: 0%
Percent pigs without collaps −150 cm H2O, % [1, 3]: 0%
Percent pigs without collaps −150 cm H2O, % [1, 4]: 0%
Percent pigs without collaps −150 cm H2O, % [1, 5]: 0%
Percent pigs without collaps −150 cm H2O, % [1, 6]: 0%
Percent pigs without collaps −150 cm H2O, % [1, 7]: 0%

COc1cc(C(C)C)c(Oc2cnc(N)nc2N)cc1S(N)(=O)=O [Gefapixant]
free plasma concentrations [2]: about 100 nM
Percent pigs without collaps −50 cm H2O, % [1, 8]: 0%
Percent pigs without collaps −50 cm H2O, % [1, 9]: 0%
Percent pigs without collaps −50 cm H2O, % [1, 10]: 100%
Percent pigs without collaps −50 cm H2O, % [1, 11]: 100%
Percent pigs without collaps −50 cm H2O, % [1, 12]: 0%
Percent pigs without collaps −50 cm H2O, % [1, 13]: 0%
Percent pigs without collaps −50 cm H2O, % [1, 14]: 0%
Percent pigs without collaps −50 cm H2O, % [1, 15]: 0%
Percent pigs without collaps −100 cm H2O, % [1, 8]: 0%
Percent pigs without collaps −100 cm H2O, % [1, 9]: 0%
Percent pigs without collaps −100 cm H2O, % [1, 10]: 100%
Percent pigs without collaps −100 cm H2O, % [1, 11]: 0%
Percent pigs without collaps −100 cm H2O, % [1, 12]: 0%
Percent pigs without collaps −100 cm H2O, % [1, 13]: 0%
Percent pigs without collaps −100 cm H2O, % [1, 14]: 0%
Percent pigs without collaps −100 cm H2O, % [1, 15]: 0%
Percent pigs without collaps −150 cm H2O, % [1, 8]: 0%
Percent pigs without collaps −150 cm H2O, % [1, 9]: 0%
Percent pigs without collaps −150 cm H2O, % [1, 10]: 100%
Percent pigs without collaps −150 cm H2O, % [1, 11]: 0%
Percent pigs without collaps −150 cm H2O, % [1, 12]: 0%
Percent pigs without collaps −150 cm H2O, % [1, 13]: 0%
Percent pigs without collaps −150 cm H2O, % [1, 14]: 0%
Percent pigs without collaps −150 cm H2O, % [1, 15]: 0%
effectiveness of the dose on upper airway collapsibility ([1]; iv bolus 0.3 mg/kg then iv infusion 0.1 mg/kg/h for four hours): minimal effective dose
only time point after intravenous application at which upper airway collapsibility was inhibited at all three negative pressures in all pigs ([1]; iv bolus 0.3 mg/kg then iv infusion 0.1 mg/kg/h for four hours, −50, −100 and −150 cm H2O): 30 min
